# Data from patent US20070259874A1, “Phosphodiesterase Inhibitors” (priority 2003, published 2007).
row,SMILES,melting point [°C]
1,"COc1ccc(C2=NOC(C)(c3noc(C4CC4)n3)C2)cc1OC1CCCC1 (centres unmarked) [Compound No. 60, 3-[3-(3-Cyclopentyloxy-4-methoxyphenyl)-5-methyl-4,5-dihydro-isoxazol-5-yl]-5-cyclopropyl-[1,2,4]oxadiazole]",105 to 106
2,"CCOc1ccccc1-c1nc(C2(C)CC(c3ccc(OC)c(OC4CCCC4)c3)=NO2)no1 (centres unmarked) [Compound No. 59, 3-[3-(3-Cyclopentyloxy-4-methoxyphenyl)-5-methyl-4,5-dihydro-isoxazol-5-yl]-5-(2-ethoxy-phenyl)-[1,2,4]oxadiazole]",138.5 to 139
3,"COc1cccc(-c2nc(C3(C)CC(c4ccc(OC)c(OC5CCCC5)c4)=NO3)no2)c1 (centres unmarked) [Compound No. 74, 3-[3-(3-Cyclopentyloxy-4-methoxyphenyl)-5-methyl-4,5-dihydro-isoxazol-5-yl]-5-(3-methoxy-phenyl)-[1,2,4]oxadiazole]",121 to 122
4,"COc1ccc(C2=NOC(C)(c3noc(-c4ccc(Cl)c(Cl)c4)n3)C2)cc1OC1CCCC1 (centres unmarked) [Compound No. 79, 3-[3-(3-Cyclopentyloxy-4-methoxyphenyl)-5-methyl-4,5-dihydro-isoxazol-5-yl]-5-(3,4-dichloro-phenyl)-[1,2,4]oxadiazole]",113.5 to 114.9
5,"COc1ccc(C2=NOC(C)(c3noc(-c4ccccc4Cl)n3)C2)cc1OC1CCCC1 (centres unmarked) [Compound No. 76, 5-(2-Chlorophenyl)-3-[3-(3-cyclopentyloxy-4-methoxyphenyl)-5-methyl-4,5-dihydro-isoxazol-5-yl]-[1,2,4]oxadiazole]",122
